Results on eleven compounds are retold here after ChEMBL document CHEMBL1201862, “PubChem BioAssay data set” (2004).

Among the test systems are M14; A549; SF-539; IGROV-1; UO-31; TK-10; SF-295; SK-MEL-28; SF-268; DU-145; CCRF-CEM; Malme-3M; MDA-MB-231; KM12; OVCAR-3; HT-29; SK-MEL-2; SK-OV-3; HCC 2998; A498.
Assay in all cases: NCI anticancer screen, dose series, 48 h

Several values for one entry are separate records, joined by “and”; a condition that tells them apart may be missing. Equal entries are not always repeated.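 Step 1: Grow cells in 96-well plates. Step 2: Expose to compound for 48 hours at 5 concentrations. Step 3: Interpolate endpoints linearly; if unreached, use highest concentration. At the GI50, growth is halved.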 Activity calls are given as the source filed them. Rule as the data show it: active = GI50 up to about 1.1 µM and inactive = higher. Some results are limits rather than exact numbers.

As to `COC(=O)C1Cc2c(OC)ccc(OC)c2C(O)C1C(=O)OC` (stereo not drawn), the GI50 in the assay on M14, in the assay on A549, with SF-539, with IGROV-1, in the assay with UO-31 and with TK-10 was > 100 µM (inactive) throughout. In addition, the GI50 with SF-295, with SK-MEL-28, in the assay on SF-268, in the assay on DU-145, in the assay with CCRF-CEM and with Malme-3M was > 100 µM (inactive) in each case. In addition, the GI50 in the assay on MDA-MB-231, with KM12, with OVCAR-3, with HT-29 and with SK-MEL-2 was > 100 µM (inactive) in each case.
On to `COc1cc2c(c(OC)c1OC)-c1ccc(SC)cc1C(=O)CC2`, for which the GI50 in the assay with M14 is < 0.01 µM (active); with A549, < 0.01 µM (active); in the assay on SF-539, < 0.01 µM (active); with IGROV-1 it was < 0.01 µM (active); in the assay with TK-10 it was > 100 µM (inactive); in the assay with SF-295 it was < 0.01 µM (active). Moreover, the GI50 in the assay with DU-145, with CCRF-CEM, with Malme-3M, with SK-OV-3, in the assay with HCC 2998 and in the assay with KM12 was < 0.01 µM (active) in each case. Moreover, the GI50 with OVCAR-3 is < 0.01 µM (active); in the assay on HT-29 it was < 0.01 µM (active); with SK-MEL-2 it was > 100 µM (inactive).
As for `Oc1ccc(-c2nc3ccc(Br)cc3s2)cc1`, the GI50 is 18.9 µM (inactive) in the assay on M14; 21.7 µM (inactive) with A549; 14.8 µM (inactive) in the assay on SF-539; 12.9 µM (inactive) with IGROV-1; 14.5 µM (inactive) in the assay with UO-31; 17.3 µM (inactive) in the assay on TK-10. The GI50 with SF-295 was 17.6 µM (inactive); in the assay with SF-268, 16.3 µM (inactive); in the assay on DU-145, 16.9 µM (inactive); in the assay with CCRF-CEM, 3.74 µM (inactive); in the assay with Malme-3M, 27 µM (inactive); in the assay on SK-OV-3 it was 19.5 µM (inactive). Further, the GI50 is 16.3 µM (inactive) with MDA-MB-231; 14.7 µM (inactive) in the assay on KM12; 14.3 µM (inactive) in the assay on OVCAR-3; 18.2 µM (inactive) in the assay on HT-29; 17.9 µM (inactive) in the assay on SK-MEL-2.
With `CC(=O)c1c(-c2cccc3ccccc23)c(C#N)c(=S)n(C2OC(CO)C(O)C(O)C2O)c1C` (stereo not drawn), the GI50 is > 100 µM (inactive) in the assay with A549; > 100 µM (inactive) with IGROV-1; 87.5 µM (inactive) in the assay with UO-31; > 100 µM (inactive) with TK-10; > 100 µM (inactive) with A498; > 100 µM (inactive) with SF-295. Further, the GI50 was > 100 µM (inactive) with SK-MEL-28; > 100 µM (inactive) with SF-268; > 100 µM (inactive) in the assay with DU-145; 56 µM (inactive) and 51.4 µM (inactive) in the assay on CCRF-CEM; > 100 µM (inactive) in the assay with SK-OV-3; > 100 µM (inactive) in the assay with HCC 2998. Also, the GI50 in the assay on KM12 is 79.1 µM (inactive); in the assay with OVCAR-3 it was > 100 µM (inactive); in the assay on HT-29, > 100 µM (inactive); with SK-MEL-2, > 100 µM (inactive).
For `C#C/C=C\CCCC/C=C\C#CC#CCCCC#CC#C[C@H](COS(=O)(=O)O)OS(=O)(=O)O`, the GI50 is > 100 µM (inactive) in the assay on M14; > 100 µM (inactive) in the assay on A549; > 100 µM (inactive) in the assay with SF-539; > 100 µM (inactive) in the assay on IGROV-1; 72.4 µM (inactive) in the assay with UO-31; > 100 µM (inactive) in the assay with TK-10. The GI50 in the assay with SF-295, in the assay on SK-MEL-28, with SF-268, with DU-145, with CCRF-CEM and with HCC 2998 was > 100 µM (inactive) each time. Further, the GI50 in the assay on MDA-MB-231, in the assay with KM12, with OVCAR-3, in the assay on HT-29 and with SK-MEL-2 was > 100 µM (inactive) throughout.
With `CC(=O)OC12c3ccccc3C1CCCC21OCCCO1` (stereo not drawn), the GI50 in the assay with M14, with A549, with SF-539, with IGROV-1, with UO-31 and in the assay on TK-10 was > 100 µM (inactive) in each case. The GI50 with A498, in the assay on SF-295, in the assay with SK-MEL-28, with SF-268, with CCRF-CEM and in the assay with Malme-3M was > 100 µM (inactive) in each case. The GI50 with SK-OV-3, in the assay with HCC 2998, in the assay on KM12, with OVCAR-3, in the assay on HT-29 and in the assay with SK-MEL-2 was > 100 µM (inactive) each time.
In the case of `CCOC(=O)Cc1csc2[n+]1C(=O)/C(=C/c1cccc(OC)c1O)S2`, the GI50 in the assay with M14 is 77.6 µM (inactive); in the assay on A549, 67.5 µM (inactive); in the assay with SF-539, 60.8 µM (inactive); in the assay on IGROV-1 it was 45.4 µM (inactive); in the assay on UO-31 it was 28.7 µM (inactive); in the assay on TK-10 it was 46.2 µM (inactive). For the same compound, the GI50 is 73.5 µM (inactive) in the assay with SF-295; 84.9 µM (inactive) in the assay on SK-MEL-28; 73.3 µM (inactive) in the assay with DU-145; > 100 µM (inactive) in the assay with SK-OV-3; 32.2 µM (inactive) in the assay on HCC 2998; 51.5 µM (inactive) in the assay on MDA-MB-231. Also, the GI50 with KM12 was 38.1 µM (inactive); in the assay on OVCAR-3, 38.2 µM (inactive); in the assay on HT-29 it was 39 µM (inactive); in the assay with SK-MEL-2, 45 µM (inactive).
For the compound `CN(/N=C/c1cccc2cccnc12)c1ccccc1`, the GI50 in the assay on M14 was > 100 µM (inactive); in the assay with A549, > 100 µM (inactive); in the assay on SF-539 it was 37.2 µM (inactive); in the assay with IGROV-1, 73.6 µM (inactive); in the assay on UO-31 it was > 100 µM (inactive); in the assay on TK-10 it was 71.1 µM (inactive). For the same compound, the GI50 in the assay with A498 was > 100 µM (inactive); in the assay on SF-295, 99.3 µM (inactive); with SK-MEL-28, > 100 µM (inactive); in the assay on SF-268 it was > 100 µM (inactive); with CCRF-CEM it was > 100 µM (inactive); in the assay with Malme-3M it was > 100 µM (inactive). The GI50 in the assay on SK-OV-3 was > 100 µM (inactive); with HCC 2998 it was 86.1 µM (inactive); in the assay with KM12, 78.3 µM (inactive); with OVCAR-3, 13.2 µM (inactive); with HT-29 it was 44.2 µM (inactive); with SK-MEL-2 it was 41.1 µM (inactive).
On to `CN1Cc2c(nc(-c3ccccc3)c[n+]2[O-])N(C)C1`, for which the GI50 with M14, in the assay on A549, with SF-539, with IGROV-1, in the assay on UO-31 and in the assay with TK-10 was > 100 µM (inactive) throughout. Further, the GI50 in the assay with A498, with SF-295, in the assay on SK-MEL-28, in the assay on SF-268, with CCRF-CEM and with Malme-3M was > 100 µM (inactive) throughout. Further, the GI50 with SK-OV-3, in the assay on HCC 2998, in the assay with KM12, with OVCAR-3, in the assay with HT-29 and in the assay with SK-MEL-2 was > 100 µM (inactive) throughout.
Regarding `COc1cccc(/C=N/NC(=O)CN(C)C)c1O`, the GI50 with M14, with A549, with SF-539, in the assay with IGROV-1, in the assay on UO-31 and with TK-10 was > 100 µM (inactive) throughout. Further, the GI50 in the assay with A498, in the assay on SF-295, with SK-MEL-28, in the assay on SF-268, with DU-145 and in the assay with CCRF-CEM was > 100 µM (inactive) in each case. Besides, the GI50 in the assay on Malme-3M, in the assay on SK-OV-3, in the assay with HCC 2998, with KM12, in the assay with OVCAR-3 and with HT-29 was > 100 µM (inactive) throughout.
On to `O=C(Nc1c(Cl)cc([N+](=O)[O-])cc1Cl)C(=O)C(C1OC(=O)c2ccccc21)[N+](=O)[O-]` (stereo not drawn), for which the GI50 was > 100 µM (inactive) in the assay with M14; > 100 µM (inactive) in the assay with A549; > 100 µM (inactive) in the assay with SF-539; > 100 µM (inactive) with IGROV-1; 23.5 µM (inactive) with UO-31; > 100 µM (inactive) in the assay with TK-10. Besides, the GI50 with A498 is 31.6 µM (inactive); in the assay with SF-295, > 100 µM (inactive); in the assay on SK-MEL-28 it was > 100 µM (inactive); in the assay with SF-268, > 100 µM (inactive); in the assay on CCRF-CEM, > 100 µM (inactive); in the assay with Malme-3M it was > 100 µM (inactive). Besides, the GI50 in the assay on SK-OV-3, with HCC 2998, with KM12, with OVCAR-3, with HT-29 and in the assay on SK-MEL-2 was > 100 µM (inactive) throughout.
